The kinase profiling compilation of Christmann-Franck et al. (2016)

Columns and labels:
Test in all cases: radiometric filter-binding kinase assay
FGFR1 (human) = FGFR1 (human) (UniProt P11362)
EEF2K (human) = EEF2K (human) (UniProt O00418)
CSNK2A1 (human) = CSNK2A1 (human) (UniProt P68400)
PRKAA1 or PRKAA2 (rat) = conditions: accession and sequence are those of the human protein
CDK2 CCNA2 (human) = CDK2 CCNA2 (human) (UniProt P20248+P24941)
MAPKAPK3 (human) = MAPKAPK3 (human) (UniProt Q16644)
SRC (human) = SRC (human) (UniProt P12931)
PHKG1 (human) = PHKG1 (human) (UniProt Q16816)
ROCK2 (rat) = conditions: accession and sequence are those of the human protein
DAPK1 (human) = DAPK1 (human) (UniProt P53355)
CHEK2 (human) = CHEK2 (human) (UniProt O96017)
INSRR (human) = INSRR (human) (UniProt P14616)
TTK (human) = TTK (human) (UniProt P33981)
EPHB3 (human) = EPHB3 (human) (UniProt P54753)
MKNK2 (human) = MKNK2 (human) (UniProt Q9HBH9)
MELK (human) = MELK (human) (UniProt Q14680)
MAPK1 (human) = MAPK1 (human) (UniProt P28482)
MYLK (human) = MYLK (human) (UniProt Q15746)
RPS6KA1 KD1 KD2 (human) = RPS6KA1 KD1 KD2 (human) (UniProt Q15418)
AURKB (human) = AURKB (human) (UniProt Q96GD4)
MKNK1 (human) = MKNK1 (human) (UniProt Q9BUB5)
MINK1 (human) = MINK1 (human) (UniProt Q8N4C8)
MARK4 (human) = MARK4 (human) (UniProt Q96L34)
MAP2K2 (human) = MAP2K2 (human) (UniProt P36507); conditions: compound 5.0 µM
MAPK13 (human) = MAPK13 (human) (UniProt O15264)
NTRK1 (human) = NTRK1 (human) (UniProt P04629)
CSK (human) = CSK (human) (UniProt P41240); conditions: compound 5.0 µM
LCK (mouse) = conditions: compound 1.0 µM; accession and sequence are those of the human protein
PRKCZ (human) = PRKCZ (human) (UniProt Q05513)
MAP3K9 (human) = MAP3K9 (human) (UniProt P80192)
PRKACA (human) = PRKACA (human) (UniProt P17612)
ERBB4 (human) = ERBB4 (human) (UniProt Q15303)
GSK3B (human) = GSK3B (human) (UniProt P49841)
[1] = target: STK11 CAB39 STRADA (human) (UniProt Q9Y376+Q7RTN6+Q15831)

Chain of SRC (human) (P12931 whole entry, looked up): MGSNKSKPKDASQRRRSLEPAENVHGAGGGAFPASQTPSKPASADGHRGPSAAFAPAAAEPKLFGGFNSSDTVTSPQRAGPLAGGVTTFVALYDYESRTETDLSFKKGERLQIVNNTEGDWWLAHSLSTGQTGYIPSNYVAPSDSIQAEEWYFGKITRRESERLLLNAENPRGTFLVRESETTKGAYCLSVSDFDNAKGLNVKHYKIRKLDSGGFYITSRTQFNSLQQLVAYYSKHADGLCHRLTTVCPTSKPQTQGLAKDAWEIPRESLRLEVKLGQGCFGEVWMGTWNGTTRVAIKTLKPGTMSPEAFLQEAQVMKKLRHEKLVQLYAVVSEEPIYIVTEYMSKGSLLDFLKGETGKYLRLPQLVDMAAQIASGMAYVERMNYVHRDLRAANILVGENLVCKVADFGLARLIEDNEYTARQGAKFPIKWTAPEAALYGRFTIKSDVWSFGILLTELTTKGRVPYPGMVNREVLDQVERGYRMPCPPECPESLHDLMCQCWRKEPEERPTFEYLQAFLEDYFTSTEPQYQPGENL
Chain of ERBB4 (human) (Q15303 whole entry, looked up): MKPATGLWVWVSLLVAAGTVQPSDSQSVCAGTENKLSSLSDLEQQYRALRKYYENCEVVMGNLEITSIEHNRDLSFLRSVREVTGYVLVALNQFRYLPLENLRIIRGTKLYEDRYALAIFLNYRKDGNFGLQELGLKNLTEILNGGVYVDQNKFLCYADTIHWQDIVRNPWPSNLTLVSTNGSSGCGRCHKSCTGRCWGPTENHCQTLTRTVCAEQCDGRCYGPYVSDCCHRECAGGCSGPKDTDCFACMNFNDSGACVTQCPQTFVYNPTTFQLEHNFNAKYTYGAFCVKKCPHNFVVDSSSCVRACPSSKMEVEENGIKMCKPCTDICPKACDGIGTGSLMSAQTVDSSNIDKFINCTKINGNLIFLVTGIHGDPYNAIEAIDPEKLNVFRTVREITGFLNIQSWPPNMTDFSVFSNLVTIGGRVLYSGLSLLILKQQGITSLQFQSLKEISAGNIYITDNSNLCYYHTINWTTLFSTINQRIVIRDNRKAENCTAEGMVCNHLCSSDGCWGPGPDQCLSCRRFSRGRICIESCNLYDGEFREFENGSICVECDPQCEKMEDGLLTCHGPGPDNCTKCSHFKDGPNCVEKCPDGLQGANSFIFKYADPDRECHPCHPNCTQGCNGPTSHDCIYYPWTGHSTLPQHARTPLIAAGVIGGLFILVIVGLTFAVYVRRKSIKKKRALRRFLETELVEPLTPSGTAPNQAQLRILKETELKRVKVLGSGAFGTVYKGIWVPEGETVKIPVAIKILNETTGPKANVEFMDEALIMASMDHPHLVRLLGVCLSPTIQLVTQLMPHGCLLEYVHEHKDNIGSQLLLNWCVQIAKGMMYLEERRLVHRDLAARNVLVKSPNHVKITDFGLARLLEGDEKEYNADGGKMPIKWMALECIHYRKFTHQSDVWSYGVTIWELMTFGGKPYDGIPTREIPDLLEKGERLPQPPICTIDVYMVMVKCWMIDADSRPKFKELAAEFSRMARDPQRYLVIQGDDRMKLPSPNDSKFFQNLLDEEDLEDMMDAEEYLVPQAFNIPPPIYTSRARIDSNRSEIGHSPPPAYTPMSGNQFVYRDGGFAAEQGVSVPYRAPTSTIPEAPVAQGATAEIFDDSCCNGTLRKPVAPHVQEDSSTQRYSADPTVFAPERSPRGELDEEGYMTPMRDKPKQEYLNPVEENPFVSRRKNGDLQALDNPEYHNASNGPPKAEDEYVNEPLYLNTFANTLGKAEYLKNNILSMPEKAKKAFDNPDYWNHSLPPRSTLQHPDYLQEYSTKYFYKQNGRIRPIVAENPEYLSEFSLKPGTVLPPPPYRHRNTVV
Chain of FGFR1 (human) (P11362 whole entry, looked up): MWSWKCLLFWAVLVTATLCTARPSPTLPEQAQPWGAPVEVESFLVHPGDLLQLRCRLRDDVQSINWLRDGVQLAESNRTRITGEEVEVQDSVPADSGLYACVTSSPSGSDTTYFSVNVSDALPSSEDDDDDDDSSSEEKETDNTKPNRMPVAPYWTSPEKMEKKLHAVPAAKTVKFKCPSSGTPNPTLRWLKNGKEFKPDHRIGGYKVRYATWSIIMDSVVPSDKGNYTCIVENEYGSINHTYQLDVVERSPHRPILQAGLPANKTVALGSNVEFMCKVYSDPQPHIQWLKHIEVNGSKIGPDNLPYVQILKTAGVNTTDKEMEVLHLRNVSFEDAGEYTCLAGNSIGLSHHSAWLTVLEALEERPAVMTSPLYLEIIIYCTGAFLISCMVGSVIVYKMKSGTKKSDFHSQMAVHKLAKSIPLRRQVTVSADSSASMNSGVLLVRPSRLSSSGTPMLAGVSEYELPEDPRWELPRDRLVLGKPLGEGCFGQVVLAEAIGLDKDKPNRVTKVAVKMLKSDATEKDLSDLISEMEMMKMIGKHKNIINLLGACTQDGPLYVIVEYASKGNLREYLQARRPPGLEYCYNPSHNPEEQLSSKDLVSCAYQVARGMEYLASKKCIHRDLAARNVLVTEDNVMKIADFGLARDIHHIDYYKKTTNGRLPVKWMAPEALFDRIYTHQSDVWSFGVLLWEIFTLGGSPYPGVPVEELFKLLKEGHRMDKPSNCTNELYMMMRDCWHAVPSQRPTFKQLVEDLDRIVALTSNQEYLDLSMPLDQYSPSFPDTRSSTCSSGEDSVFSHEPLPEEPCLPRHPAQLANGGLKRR
Chain of MAPK1 (human) (P28482 whole entry, looked up): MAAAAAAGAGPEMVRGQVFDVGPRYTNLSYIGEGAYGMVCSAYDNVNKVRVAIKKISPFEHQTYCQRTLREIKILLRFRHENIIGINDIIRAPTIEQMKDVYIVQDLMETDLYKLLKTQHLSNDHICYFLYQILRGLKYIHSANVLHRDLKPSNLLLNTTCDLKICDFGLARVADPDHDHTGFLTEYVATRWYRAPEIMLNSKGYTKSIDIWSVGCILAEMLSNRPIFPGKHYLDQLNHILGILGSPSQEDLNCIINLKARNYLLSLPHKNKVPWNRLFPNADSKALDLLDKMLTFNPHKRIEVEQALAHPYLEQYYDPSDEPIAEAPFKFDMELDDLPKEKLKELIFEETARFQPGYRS
Chain of MAPKAPK3 (human) (Q16644 whole entry, looked up): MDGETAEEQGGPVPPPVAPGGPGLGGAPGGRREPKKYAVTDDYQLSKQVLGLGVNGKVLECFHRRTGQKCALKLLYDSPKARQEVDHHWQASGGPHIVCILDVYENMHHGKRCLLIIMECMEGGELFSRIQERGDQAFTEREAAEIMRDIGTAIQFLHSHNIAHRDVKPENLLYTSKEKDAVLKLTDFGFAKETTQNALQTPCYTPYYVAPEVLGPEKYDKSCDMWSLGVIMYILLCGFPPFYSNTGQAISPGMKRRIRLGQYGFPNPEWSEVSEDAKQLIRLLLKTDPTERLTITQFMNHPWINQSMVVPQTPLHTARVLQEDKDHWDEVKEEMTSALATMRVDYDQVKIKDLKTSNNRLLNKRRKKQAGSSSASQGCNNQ
Chain of NTRK1 (human) (P04629 whole entry, looked up): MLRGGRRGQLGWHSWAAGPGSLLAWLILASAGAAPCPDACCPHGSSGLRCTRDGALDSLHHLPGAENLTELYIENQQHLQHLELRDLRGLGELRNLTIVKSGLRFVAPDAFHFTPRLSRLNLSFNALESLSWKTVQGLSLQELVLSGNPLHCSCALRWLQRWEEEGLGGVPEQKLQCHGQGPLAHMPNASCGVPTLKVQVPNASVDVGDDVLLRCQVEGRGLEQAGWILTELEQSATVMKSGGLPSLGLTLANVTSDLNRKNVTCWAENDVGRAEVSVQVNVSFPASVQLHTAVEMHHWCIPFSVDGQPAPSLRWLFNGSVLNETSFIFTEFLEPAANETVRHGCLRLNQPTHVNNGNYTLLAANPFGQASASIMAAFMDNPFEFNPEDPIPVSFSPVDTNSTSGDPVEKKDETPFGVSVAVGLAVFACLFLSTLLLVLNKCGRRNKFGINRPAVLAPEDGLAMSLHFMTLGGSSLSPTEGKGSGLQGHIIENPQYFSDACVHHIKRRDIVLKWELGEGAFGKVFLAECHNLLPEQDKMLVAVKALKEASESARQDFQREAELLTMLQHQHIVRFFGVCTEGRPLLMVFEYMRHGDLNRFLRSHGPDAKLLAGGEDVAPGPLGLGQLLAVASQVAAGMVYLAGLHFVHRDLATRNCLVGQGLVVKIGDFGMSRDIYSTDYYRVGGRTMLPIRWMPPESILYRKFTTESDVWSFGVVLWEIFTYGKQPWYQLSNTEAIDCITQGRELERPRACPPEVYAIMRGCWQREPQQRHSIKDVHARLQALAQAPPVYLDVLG
Chain of RPS6KA1 KD1 KD2 (human) (Q15418 whole entry, looked up): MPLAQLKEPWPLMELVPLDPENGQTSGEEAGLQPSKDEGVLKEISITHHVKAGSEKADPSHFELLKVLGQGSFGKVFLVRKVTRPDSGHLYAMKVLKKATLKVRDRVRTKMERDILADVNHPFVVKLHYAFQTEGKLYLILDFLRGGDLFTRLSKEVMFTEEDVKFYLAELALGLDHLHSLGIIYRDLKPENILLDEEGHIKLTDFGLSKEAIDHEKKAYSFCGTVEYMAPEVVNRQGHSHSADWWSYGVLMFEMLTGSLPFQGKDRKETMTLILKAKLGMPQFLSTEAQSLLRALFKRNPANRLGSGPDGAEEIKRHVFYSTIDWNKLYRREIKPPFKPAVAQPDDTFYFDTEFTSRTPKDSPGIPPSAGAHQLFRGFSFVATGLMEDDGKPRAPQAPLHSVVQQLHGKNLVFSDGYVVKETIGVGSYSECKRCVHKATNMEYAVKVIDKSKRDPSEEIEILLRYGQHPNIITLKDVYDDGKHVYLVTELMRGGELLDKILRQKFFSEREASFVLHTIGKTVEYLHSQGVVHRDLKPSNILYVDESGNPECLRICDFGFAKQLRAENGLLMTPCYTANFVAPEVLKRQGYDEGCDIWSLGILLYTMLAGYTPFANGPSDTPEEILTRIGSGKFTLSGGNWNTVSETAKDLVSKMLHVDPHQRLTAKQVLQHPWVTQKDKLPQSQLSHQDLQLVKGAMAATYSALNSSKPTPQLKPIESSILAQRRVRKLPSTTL

C=C1C(=O)OC2C1CC/C(C)=C/CCC1(C)OC21 (stereo not given)
residual activity (FGFR1 (human); compound 1.0 µM): 106%
residual activity (FGFR1 (human); compound 5.0 µM): 99%
residual activity (EEF2K (human); compound 1.0 µM): 107%
residual activity (EEF2K (human); compound 5.0 µM): 91%
residual activity (CSNK2A1 (human); compound 1.0 µM): 117%
residual activity (CSNK2A1 (human); compound 5.0 µM): 106%
residual activity (PRKAA1 or PRKAA2 (rat); compound 1.0 µM): 97%
residual activity (PRKAA1 or PRKAA2 (rat); compound 5.0 µM): 98%
residual activity (CDK2 CCNA2 (human); compound 1.0 µM): 93%
residual activity (CDK2 CCNA2 (human); compound 5.0 µM): 116%
residual activity (MAPKAPK3 (human); compound 1.0 µM): 135%
residual activity (MAPKAPK3 (human); compound 5.0 µM): 58%
residual activity (SRC (human); compound 1.0 µM): 110%
residual activity (SRC (human); compound 5.0 µM): 111%
residual activity (PHKG1 (human); compound 1.0 µM): 116%
residual activity (PHKG1 (human); compound 5.0 µM): 108%
residual activity (ROCK2 (rat); compound 1.0 µM): 123%
residual activity (ROCK2 (rat); compound 5.0 µM): 113%
residual activity (DAPK1 (human); compound 1.0 µM): 102%
residual activity (DAPK1 (human); compound 5.0 µM): 107%
residual activity (CHEK2 (human); compound 1.0 µM): 102%
residual activity (CHEK2 (human); compound 5.0 µM): 121%
residual activity (INSRR (human); compound 1.0 µM): 107%
residual activity (INSRR (human); compound 5.0 µM): 95%
residual activity (TTK (human); compound 1.0 µM): 109%
residual activity (TTK (human); compound 5.0 µM): 106%
residual activity (EPHB3 (human); compound 1.0 µM): 95%
residual activity (EPHB3 (human); compound 5.0 µM): 115%
residual activity (MKNK2 (human); compound 1.0 µM): 113%
residual activity (MKNK2 (human); compound 5.0 µM): 117%
residual activity (MELK (human); compound 1.0 µM): 138%
residual activity (MELK (human); compound 5.0 µM): 100%
residual activity (MAPK1 (human); compound 1.0 µM): 90%
residual activity (MAPK1 (human); compound 5.0 µM): 83%
residual activity (MYLK (human); compound 1.0 µM): 123%
residual activity (MYLK (human); compound 5.0 µM): 113%
residual activity (RPS6KA1 KD1 KD2 (human); compound 1.0 µM): 110%
residual activity (RPS6KA1 KD1 KD2 (human); compound 5.0 µM): 112%
residual activity (AURKB (human); compound 1.0 µM): 106%
residual activity (AURKB (human); compound 5.0 µM): 99%
residual activity (MKNK1 (human); compound 1.0 µM): 116%
residual activity (MKNK1 (human); compound 5.0 µM): 94%
residual activity (MINK1 (human); compound 1.0 µM): 108%
residual activity (MINK1 (human); compound 5.0 µM): 122%
residual activity (MARK4 (human); compound 1.0 µM): 111%
residual activity (MARK4 (human); compound 5.0 µM): 93%
residual activity (MAP2K2 (human)): 109%
residual activity (MAPK13 (human); compound 1.0 µM): 115%
residual activity (MAPK13 (human); compound 5.0 µM): 113%
residual activity (NTRK1 (human); compound 1.0 µM): 106%
residual activity (NTRK1 (human); compound 5.0 µM): 83%
residual activity (CSK (human)): 98%
residual activity (LCK (mouse)): 112%
residual activity (PRKCZ (human); compound 1.0 µM): 117%
residual activity (PRKCZ (human); compound 5.0 µM): 98%
residual activity (MAP3K9 (human); compound 1.0 µM): 117%
residual activity (MAP3K9 (human); compound 5.0 µM): 95%
residual activity (PRKACA (human); compound 1.0 µM): 121%
residual activity (PRKACA (human); compound 5.0 µM): 103%
residual activity (ERBB4 (human); compound 1.0 µM): 98%
residual activity (ERBB4 (human); compound 5.0 µM): 90%
residual activity (GSK3B (human); compound 1.0 µM): 106%
residual activity (GSK3B (human); compound 5.0 µM): 105%
residual activity ([1]; compound 1.0 µM): 132%
residual activity ([1]; compound 5.0 µM): 106%
